According to PubChem BioAssay AID2060897 (Molecular Pharmacology Branch, DTP, NCI, 2025):

Test system: 966289-007-R4-J1-PDC complex spheroid viability
Experiment: Anticancer human tumor 966289-007-R4-J1-PDC patient-derived pancreatic adenocarcinoma cell line growth inhibition [RAS]
Settings: for IC50: curve of first compound; for viability, T/C: stronger effect = lower value
Summary of the method: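 Tumour cells grown as complex spheroids with HUVEC endothelial cells and mesenchymal stem cells, treated with RAS pathway inhibitor combinations. Each agent spans half-log steps from near clinical Cmax, or 10 microM where Cmax is unknown.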
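Note: spheroids exposed to agents for one week before readout.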
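Throughout, for viability, T/C: percent viability relative to DMSO vehicle control wells as 100%.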

CC1(O)CCCC1n1c(=O)c(C(F)F)cc2cnc(NC3CCN(S(C)(=O)=O)CC3)nc21 (centres undefined) + C=CC(=O)N1CCN(c2nc(OCC3CCCN3C)nc3c(F)c(-c4nc(N)cc(C)c4C(F)(F)F)c(Cl)cc23)C(C)C1
IC50 (second compound 0.00316 µM): 133 nM
IC50 (second compound 0.01 µM): 151 nM
IC50 (second compound 0.0316 µM): 171 nM
IC50 (second compound 0.1 µM): 156 nM
IC50 (second compound 0.316 µM): 154 nM
IC50 (second compound 1 µM): 125 nM
viability, T/C (second compound 0.00316 µM, first compound 0.0316 µM): 130%
viability, T/C (second compound 0.00316 µM, first compound 0.1 µM): 56.8%
viability, T/C (second compound 0.00316 µM, first compound 0.316 µM): 25%
viability, T/C (second compound 0.00316 µM, first compound 1 µM): 27%
viability, T/C (second compound 0.00316 µM, first compound 3.16 µM): 29.8%
viability, T/C (second compound 0.00316 µM, first compound 10 µM): 3.73%
viability, T/C (second compound 0.01 µM, first compound 0.0316 µM): 138%
viability, T/C (second compound 0.01 µM, first compound 0.1 µM): 66.5%
viability, T/C (second compound 0.01 µM, first compound 0.316 µM): 21.4%
viability, T/C (second compound 0.01 µM, first compound 1 µM): 28.2%
viability, T/C (second compound 0.01 µM, first compound 3.16 µM): 26.4%
viability, T/C (second compound 0.01 µM, first compound 10 µM): 3.99%
viability, T/C (second compound 0.0316 µM, first compound 0.0316 µM): 129%
viability, T/C (second compound 0.0316 µM, first compound 0.1 µM): 66.3%
viability, T/C (second compound 0.0316 µM, first compound 0.316 µM): 26.9%
viability, T/C (second compound 0.0316 µM, first compound 1 µM): 24.9%
viability, T/C (second compound 0.0316 µM, first compound 3.16 µM): 26.2%
viability, T/C (second compound 0.0316 µM, first compound 10 µM): 3.83%
viability, T/C (second compound 0.1 µM, first compound 0.0316 µM): 121%
viability, T/C (second compound 0.1 µM, first compound 0.1 µM): 60%
viability, T/C (second compound 0.1 µM, first compound 0.316 µM): 28.8%
viability, T/C (second compound 0.1 µM, first compound 1 µM): 27.8%
viability, T/C (second compound 0.1 µM, first compound 3.16 µM): 27.9%
viability, T/C (second compound 0.1 µM, first compound 10 µM): 3.1%
viability, T/C (second compound 0.316 µM, first compound 0.0316 µM): 117%
viability, T/C (second compound 0.316 µM, first compound 0.1 µM): 61.9%
viability, T/C (second compound 0.316 µM, first compound 0.316 µM): 25.1%
viability, T/C (second compound 0.316 µM, first compound 1 µM): 27.7%
viability, T/C (second compound 0.316 µM, first compound 3.16 µM): 23.1%
viability, T/C (second compound 0.316 µM, first compound 10 µM): 3.69%
viability, T/C (second compound 1 µM, first compound 0.0316 µM): 123%
viability, T/C (second compound 1 µM, first compound 0.1 µM): 56.8%
viability, T/C (second compound 1 µM, first compound 0.316 µM): 21.2%
viability, T/C (second compound 1 µM, first compound 1 µM): 24%
viability, T/C (second compound 1 µM, first compound 3.16 µM): 22.8%
viability, T/C (second compound 1 µM, first compound 10 µM): 3.51%

CCc1c2c(nc3ccc(O)cc13)-c1cc3c(c(=O)n1C2)COC(=O)[C@]3(O)CC + C=CC(=O)N1CCN(c2nc(OCC3CCCN3C)nc3c(F)c(-c4nc(N)cc(C)c4C(F)(F)F)c(Cl)cc23)C(C)C1
IC50 (second compound 0.00316 µM): 1.5 nM
IC50 (second compound 0.01 µM): 1.38 nM
IC50 (second compound 0.0316 µM): 1.34 nM
IC50 (second compound 0.1 µM): 1.22 nM
IC50 (second compound 0.316 µM): 1.31 nM
IC50 (second compound 1 µM): 1.12 nM
viability, T/C (second compound 0.00316 µM, first compound 0.000949 µM): 82%
viability, T/C (second compound 0.00316 µM, first compound 0.003 µM): 1.8%
viability, T/C (second compound 0.00316 µM, first compound 0.00949 µM): 0.98%
viability, T/C (second compound 0.00316 µM, first compound 0.03 µM): 0.95%
viability, T/C (second compound 0.00316 µM, first compound 0.0949 µM): 0.87%
viability, T/C (second compound 0.00316 µM, first compound 0.3 µM): 0.85%
viability, T/C (second compound 0.01 µM, first compound 0.000949 µM): 72.8%
viability, T/C (second compound 0.01 µM, first compound 0.003 µM): 2.38%
viability, T/C (second compound 0.01 µM, first compound 0.00949 µM): 0.97%
viability, T/C (second compound 0.01 µM, first compound 0.03 µM): 1.12%
viability, T/C (second compound 0.01 µM, first compound 0.0949 µM): 0.92%
viability, T/C (second compound 0.01 µM, first compound 0.3 µM): 0.91%
viability, T/C (second compound 0.0316 µM, first compound 0.000949 µM): 70.5%
viability, T/C (second compound 0.0316 µM, first compound 0.003 µM): 2.51%
viability, T/C (second compound 0.0316 µM, first compound 0.00949 µM): 1.14%
viability, T/C (second compound 0.0316 µM, first compound 0.03 µM): 0.91%
viability, T/C (second compound 0.0316 µM, first compound 0.0949 µM): 0.87%
viability, T/C (second compound 0.0316 µM, first compound 0.3 µM): 0.86%
viability, T/C (second compound 0.1 µM, first compound 0.000949 µM): 63.4%
viability, T/C (second compound 0.1 µM, first compound 0.003 µM): 2.05%
viability, T/C (second compound 0.1 µM, first compound 0.00949 µM): 1.09%
viability, T/C (second compound 0.1 µM, first compound 0.03 µM): 0.89%
viability, T/C (second compound 0.1 µM, first compound 0.0949 µM): 0.99%
viability, T/C (second compound 0.1 µM, first compound 0.3 µM): 0.86%
viability, T/C (second compound 0.316 µM, first compound 0.000949 µM): 68.3%
viability, T/C (second compound 0.316 µM, first compound 0.003 µM): 2.24%
viability, T/C (second compound 0.316 µM, first compound 0.00949 µM): 1.14%
viability, T/C (second compound 0.316 µM, first compound 0.03 µM): 1.03%
viability, T/C (second compound 0.316 µM, first compound 0.0949 µM): 0.87%
viability, T/C (second compound 0.316 µM, first compound 0.3 µM): 1.11%
viability, T/C (second compound 1 µM, first compound 0.000949 µM): 58.1%
viability, T/C (second compound 1 µM, first compound 0.003 µM): 1.43%
viability, T/C (second compound 1 µM, first compound 0.00949 µM): 1.03%
viability, T/C (second compound 1 µM, first compound 0.03 µM): 0.98%
viability, T/C (second compound 1 µM, first compound 0.0949 µM): 0.91%
viability, T/C (second compound 1 µM, first compound 0.3 µM): 0.97%
